Assays:
[1] = system: acetylation of chromatin at H3K18 (catalyzed by p300 and CBP) in HCT-116 cells; experiment: H3K18Ac MSD cellular assay; type: cell-based; settings: 2 hr treatment, average of at least 2 replicate titrations
Procedure: Select compounds were also evaluated in a H3K18Ac MSD cellular assay that measures the ability of compounds to inhibit the acetylation of chromatin at H3K18, a process catalyzed by p300 and CBP. In a typical experiment the p300 HAT inhibitory activity inside cells of the compounds described herein was determined in accordance with the following experimental method. 20 k HCT-116 cells per well are plated in 75 μL RPMI+10% FBS media the night before treatment. Compounds plated in DMSO at 4× final concentration are resuspended in 30 μL RPMI+10% FBS, then 25 μL is combined with corresponding wells containing cells. Treated cells are incubated for 2 hr at 37° C., then lysed in 500 μL final volume and frozen at −80° C. MSD plates (Meso Scale Discovery) are coated overnight at 4° C. with 60 μL 1:500α-total histone antibody (Millipore MAB3422) in PBS. Plates are then blocked with 5% BSA in TBST shaking at RT for 1 hr, washed, and 30 μL lysate added to each well for 2 hr shaking at RT. Plates are washed and 25 μL 1:216α-H3K18ac antibody (CST 9675) in PBS added, then incubated for 1 hr shaking at RT. Plates are washed again, then 25 μL 1:1000 Sulfo-Tag goat a-rabbit antibody (Meso Scale Discovery R32Ab-1) in PBS is added for 1 hr shaking at RT. Plates are washed once more, then 150 μL 1× Read Buffer (MSD #R92TD-3) is added to all wells and read on MSD SECTOR Imager 2400 using the conventional read setup.

[2] = biological target: p300 HAT domain (residues 1287-1666) (Homo sapiens (Human), UniProt Q09472); experiment: p300 HAT SPA assay (scintillation proximity assay, acetylation of biotinylated H3(1-21) peptide); type: biochemical; settings: p300 HAT domain; average of at least 2 replicate titrations; read-out: P300 HAT SPA IC50
Outline: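 Purified p300 HAT domain reaction transferred to streptavidin plates to capture biotinylated H3(1-21) peptide, incubated 1.5 hr at RT, and read by scintillation proximity. IC50 values derived from concentration-response data.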

p300 HAT domain (residues 1287-1666), sequence (Q09472 1287-1666): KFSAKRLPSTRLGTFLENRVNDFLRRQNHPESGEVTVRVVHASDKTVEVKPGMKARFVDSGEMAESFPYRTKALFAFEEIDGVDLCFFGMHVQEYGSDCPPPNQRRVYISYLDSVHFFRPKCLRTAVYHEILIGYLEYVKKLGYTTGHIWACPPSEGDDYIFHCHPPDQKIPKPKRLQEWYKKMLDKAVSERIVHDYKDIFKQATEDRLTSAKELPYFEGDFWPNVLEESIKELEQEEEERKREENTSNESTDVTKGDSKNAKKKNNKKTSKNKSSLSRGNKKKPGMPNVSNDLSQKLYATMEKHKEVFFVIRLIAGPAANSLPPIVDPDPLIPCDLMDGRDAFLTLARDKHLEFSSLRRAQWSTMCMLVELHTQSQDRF

Row | EC50 ([1]; Homo sapiens, HCT-116, 2 h) | IC50 [2] | EC50 [1] | Structure (SMILES)
1 | 282 nM | 706 nM | – | O=C(c1c[nH]c2ccccc12)C(NCCc1ccc(Cl)cc1Cl)c1ccccc1 (single isomer, unassigned) [19 Isomer 2]
2 | – | > 30000 nM | > 10000 nM | CC(CNC(C(=O)c1c[nH]c2ccccc12)c1ccccc1)c1ccc(Cl)cc1 (single isomer, unassigned) [26 Isomer 1]
3 | – | 4560 nM | 2530 nM | CC(CNC(C(=O)c1c[nH]c2ccccc12)c1ccccc1)c1ccc(Cl)cc1 (single isomer, unassigned) [26 Isomer 2]
4 | – | 3790 nM | 6110 nM | CC(CNC(C(=O)c1c[nH]c2ccccc12)c1ccccc1)c1ccc(Cl)cc1 (single isomer, unassigned) [26 Isomer 3]
5 | – | 204 nM | 139 nM | CC(CNC(C(=O)c1c[nH]c2ccccc12)c1ccccc1)c1ccc(Cl)cc1 (single isomer, unassigned) [26 Isomer 4]
6 | 1690 nM | 698 nM | – | Cc1ccc(CCNC(C(=O)c2c[nH]c3ccccc23)c2ccccc2)cc1 (single isomer, unassigned) [38 Isomer 2]
7 | 4010 nM | 1310 nM | – | O=C(c1c[nH]c2ccccc12)C(NCCc1ccc(OC(F)(F)F)cc1)c1ccccc1 (single isomer, unassigned) [40 Isomer 2]
8 | 3200 nM | 3340 nM | – | Cc1ccc2c(C(=O)C(NCCc3ccc(F)cc3)c3ccccc3)c[nH]c2c1 (single isomer, unassigned) [48 Isomer 2]
9 | 3470 nM | 4290 nM | – | CCNc1ccc(CCNC(C(=O)c2c[nH]c3ccccc23)c2ccccc2)cn1 (single isomer, unassigned) [53 Isomer 2]
10 | 1440 nM | 3100 nM | – | Cc1ccc2c(C(=O)C(NCCc3ccc(S(N)(=O)=O)cc3)c3ccccc3)c[nH]c2c1 (single isomer, unassigned) [56 Isomer 2]
11 | 477 nM | 201 nM | – | N#Cc1ccc(CCNC(C(=O)c2c[nH]c3ccccc23)c2ccccc2)cc1 (single isomer, unassigned) [58 Isomer 2]
12 | 829 nM | 827 nM | – | CCC(CNC(C(=O)c1c[nH]c2ccccc12)c1ccccc1)c1ccc(Cl)cc1 (single isomer, unassigned) [59 Isomer 4]
13 | 71.7 nM | 422 nM | – | CC(=O)N1CCC(c2ccc3c(C(=O)C(NCCc4ccc(Cl)cc4)c4ccccc4)c[nH]c3c2)CC1 (single isomer, unassigned) [65 Isomer 2]
14 | 43.3 nM | 281 nM | – | Cn1cc(-c2ccc3c(C(=O)C(NCCc4ccc(S(N)(=O)=O)cc4)c4ccccc4)c[nH]c3c2)cn1 (single isomer, unassigned) [66 Isomer 2]
15 | – | – | 366 nM | Cn1cc(-c2ccc3c(C(=O)C(NCCc4ccc(C#N)cc4)c4ccccc4)cnn3c2)cn1 (single isomer, unassigned) [79 Isomer 1]
16 | – | – | 60 nM | Cn1cc(-c2ccc3c(C(=O)C(NCCc4ccc(C#N)cc4)c4ccccc4)cnn3c2)cn1 (single isomer, unassigned) [79 Isomer 2]
17 | – | > 30000 nM | 1610 nM | O=C(c1c[nH]c2cc(-c3ccncc3)ccc12)C(NCCc1ccc(F)cc1)c1ccccc1 (single isomer, unassigned) [82 Isomer 1]
18 | 74.7 nM | 247 nM | – | Cn1cc(-c2ccc3c(C(=O)C(NCCc4ccc(Cl)cc4)c4ccccc4)c[nH]c3c2)cn1 (single isomer, unassigned) [83 Isomer 2]
19 | 37.5 nM | – | – | Cn1cc(-c2ccc3c(C(=O)C(NCCc4ccc(C#N)cc4)c4ccccc4)c[nH]c3c2)cn1 (single isomer, unassigned) [84 Isomer 2]
20 | 92.6 nM | 826 nM | – | Cn1cc(-c2ccc3c(C(=O)C(NCCc4ccc(F)cc4F)c4ccccc4)c[nH]c3c2)cn1 (single isomer, unassigned) [85 Isomer 2]
21 | 116 nM | 332 nM | – | CCn1cc(-c2ccc3c(C(=O)C(NCCc4ccc(Cl)cc4)c4ccccc4)c[nH]c3c2)cn1 (single isomer, unassigned) [86 Isomer 2]
22 | 379 nM | 603 nM | – | Cc1ccc(-c2ccc3c(C(=O)C(NCCc4ccc(Cl)cc4)c4ccccc4)c[nH]c3c2)cn1 (single isomer, unassigned) [88 Isomer 2]

Row | EC50 ([1]; Homo sapiens, HCT-116, 2 h) | IC50 [2] | EC50 [1] | Structure (SMILES)
23 | 80 nM | 591 nM | – | O=C(c1c[nH]c2cc(-c3cccnc3)ccc12)C(NCCc1ccc(Cl)cc1)c1ccccc1 (single isomer, unassigned) [90 Isomer 2]
24 | 109 nM | 164 nM | – | CC(Cc1ccc(Cl)cc1)NC(C(=O)c1c[nH]c2cc(-c3cnn(C)c3)ccc12)c1ccccc1 (single isomer, unassigned) [92 Isomer 3]
25 | 61.2 nM | 46 nM | – | N#Cc1ccc(CCNC(C(=O)c2c[nH]c3cc(-c4cnn(CCO)c4)ccc23)c2ccccc2)cc1 (single isomer, unassigned) [95 Isomer 2]
26 | 26.4 nM | 62 nM | – | COCCn1cc(-c2ccc3c(C(=O)C(NCCc4ccc(C#N)cc4)c4ccccc4)c[nH]c3c2)cn1 (single isomer, unassigned) [96 Isomer 2]
27 | – | 437 nM | 135 nM | CC(Cc1ccc(Cl)cc1Cl)NC(C(=O)c1c[nH]c2cc(-c3cnn(C)c3)ccc12)c1ccccc1 (single isomer, unassigned) [97 Isomer 1]
28 | – | 6260 nM | 780 nM | CC(Cc1ccc(Cl)cc1Cl)NC(C(=O)c1c[nH]c2cc(-c3cnn(C)c3)ccc12)c1ccccc1 (single isomer, unassigned) [97 Isomer 2]
29 | – | > 30000 nM | > 10000 nM | CC(Cc1ccc(Cl)cc1Cl)NC(C(=O)c1c[nH]c2cc(-c3cnn(C)c3)ccc12)c1ccccc1 (single isomer, unassigned) [97 Isomer 3]
30 | – | 6710 nM | > 10000 nM | CC(Cc1ccc(Cl)cc1Cl)NC(C(=O)c1c[nH]c2cc(-c3cnn(C)c3)ccc12)c1ccccc1 (single isomer, unassigned) [97 Isomer 4]
31 | 18.6 nM | 58.3 nM | – | N#Cc1ccc(CCNC(C(=O)c2c[nH]c3cc(-c4cn[nH]c4)ccc23)c2ccccc2)cc1 (single isomer, unassigned) [98 Isomer 2]
32 | 21.6 nM | 15.6 nM | – | N#Cc1ccc(CCNC(C(=O)c2cnn3cc(-c4cn[nH]c4)ccc23)c2ccccc2)cc1 (single isomer, unassigned) [99 Isomer 2]
33 | 47.1 nM | 59.2 nM | – | Cn1cc(-c2ccc3c(C(=O)C(NCCc4ccc(S(N)(=O)=O)cc4)c4ccccc4)cnn3c2)cn1 (single isomer, unassigned) [101 Isomer 2]
34 | – | > 5000 nM | – | COCCn1cc(-c2ccc3c(C(=O)C(NCCc4ccc(C(N)=O)cc4)c4ccccc4)c[nH]c3c2)cn1 (single isomer, unassigned) [183 Isomer 1]
35 | – | 717 nM | – | COCCn1cc(-c2ccc3c(C(=O)C(NCCc4ccc(C(N)=O)cc4)c4ccccc4)c[nH]c3c2)cn1 (single isomer, unassigned) [183 Isomer 2]
36 | – | 672 nM | – | Cc1nc(C(=O)C(NCCc2ccc(C(N)=O)cc2)c2ccccc2)c2ccc(-c3cnn(C)c3)cn12 (single isomer, unassigned) [184 Isomer 1]
37 | – | 522 nM | – | Cc1nc(C(=O)C(NCCc2ccc(C(N)=O)cc2)c2ccccc2)c2ccc(-c3cnn(C)c3)cn12 (single isomer, unassigned) [184 Isomer 2]
38 | – | 1100 nM | – | O=C(c1c[nH]c2ccccc12)[C@@H](NCCc1ccc(-c2nn[nH]n2)cc1)c1ccccc1 (single isomer, unassigned) [185 Isomer 1]
39 | – | > 30000 nM | – | O=C(c1c[nH]c2ccccc12)[C@@H](NCCc1ccc(-c2nn[nH]n2)cc1)c1ccccc1 (single isomer, unassigned) [185 Isomer 2]
40 | – | 1970 nM | – | O=C(c1c[nH]c2ccccc12)[C@@H](NCCc1ccc(-c2nnc[nH]2)cc1)c1ccccc1 (single isomer, unassigned) [186 Isomer 1]
41 | – | 3540 nM | – | O=C(c1c[nH]c2ccccc12)[C@@H](NCCc1ccc(-c2nnc[nH]2)cc1)c1ccccc1 (single isomer, unassigned) [186 Isomer 2]
42 | – | > 5000 nM | – | Cn1cc(-c2ccc3c(C(=O)[C@@H](NCCc4ccc(N)nc4)c4ccccc4)c[nH]c3c2)cn1 (single isomer, unassigned) [187 Isomer 1]
43 | – | 793 nM | – | Cn1cc(-c2ccc3c(C(=O)[C@@H](NCCc4ccc(N)nc4)c4ccccc4)c[nH]c3c2)cn1 (single isomer, unassigned) [187 Isomer 2]

Row | Structure (SMILES) | EC50 ([1]; Homo sapiens, HCT-116, 2 h) | IC50 [2] | EC50 [1]
44 | CC(Cc1ccc(Cl)cc1)NC(C(=O)c1c[nH]c2ccccc12)c1ccccc1 (single isomer, unassigned) [27 Isomer 1] | 681 nM | 636 nM | –
45 | Cc1cccc2c(C(=O)C(NC(C)Cc3ccc(Cl)cc3Cl)c3ccccc3)c[nH]c12 (single isomer, unassigned) [68 Isomer 1] | 666 nM | 728 nM | –
